In one assay the target is T1, BRAF V600E (Homo sapiens, UniProt P15056, V600E).
T1 construct: expressed in transfected cells
The experiment in a line: Cellular assay of target protein degradation, T-Rex 293 cells stably transfected with HA-BRAF_V600E (HA immunofluorescence, high content imaging). To be noted: T-Rex 293 HA-BRAF V600E; for DC50: half maximal degradation, read-out: BRaf V600E DC50; for Dmax: maximum degradation observed. It is filed as cell-based. Summed up: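 Cells are plated with 1 ng/mL doxycycline and grown 24 h. Compound is then added (final 1 μM–0.1 nM, 0.1% DMSO) for another 24 h at 37 °C, followed by fixing, HA immunostaining and imaging to obtain DC50 and Dmax.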

Another assay addresses T2, BRAF G466V (Homo sapiens, UniProt P15056, G466V).
T2 construct: expressed in transfected cells
The experiment in a line: Cellular assay of target protein degradation, T-Rex 293 cells stably transfected with HA-BRAF G466V (HA immunofluorescence, high content imaging). It is filed as cell-based. The note with it: T-Rex 293 HA-BRAF G466V; for DC50: half maximal degradation, read-out: BRaf G466V DC50; for Dmax: maximum degradation observed. Summed up: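 Read-out is HA immunofluorescence by high content imaging, with Hoechst and phalloidin co-staining, giving DC50 and Dmax as a percentage of control. Compound exposure lasts 24 hours at 37° C over 30 nM to 3 pM in 0.1% DMSO, with doxycycline-induced HA-BRAF G466V.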

Five molecules from US12180193B2, “Accelerating fibrosarcoma protein degrading compounds and associated methods of use” (Arvinas Operations, Inc., priority 2020, dated 2024) can be followed below.

T2 sequence (P15056 whole entry G466V): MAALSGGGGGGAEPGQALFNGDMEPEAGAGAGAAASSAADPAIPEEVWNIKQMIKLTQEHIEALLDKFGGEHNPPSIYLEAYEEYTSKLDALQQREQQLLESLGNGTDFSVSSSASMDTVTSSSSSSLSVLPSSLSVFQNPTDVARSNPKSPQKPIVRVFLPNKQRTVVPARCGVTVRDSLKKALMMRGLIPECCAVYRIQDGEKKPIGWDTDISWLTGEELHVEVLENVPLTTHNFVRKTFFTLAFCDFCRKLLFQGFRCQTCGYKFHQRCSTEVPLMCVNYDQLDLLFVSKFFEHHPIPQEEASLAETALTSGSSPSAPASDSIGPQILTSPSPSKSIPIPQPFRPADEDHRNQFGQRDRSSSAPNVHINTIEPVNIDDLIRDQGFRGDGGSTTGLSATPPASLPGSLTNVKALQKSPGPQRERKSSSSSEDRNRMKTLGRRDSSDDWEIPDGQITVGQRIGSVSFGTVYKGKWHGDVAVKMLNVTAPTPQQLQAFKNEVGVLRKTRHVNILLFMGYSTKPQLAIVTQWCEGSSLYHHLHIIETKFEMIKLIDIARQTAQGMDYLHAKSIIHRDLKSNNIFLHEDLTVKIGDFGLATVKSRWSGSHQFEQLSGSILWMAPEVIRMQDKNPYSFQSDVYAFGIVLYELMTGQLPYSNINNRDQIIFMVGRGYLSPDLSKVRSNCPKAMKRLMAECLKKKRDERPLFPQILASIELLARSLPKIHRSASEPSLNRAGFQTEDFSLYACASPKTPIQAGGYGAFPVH
T1 sequence (P15056 whole entry V600E): as the sequence (P15056 whole entry G466V) above, with V466G, V600E counted along it

Regarding `O=C1CCC(c2ccc(C3CCN(CC4CCN(c5ccc(-c6cnc7[nH]cc(C(=O)c8c(F)ccc(NS(=O)(=O)N9CC[C@@H](F)C9)c8F)c7c6)cc5)CC4)CC3)cc2)C(=O)N1` (stereo partly drawn) [Compound 189, (3R)-N-[3-(5-{4-[4-({4-[4-(2,6-dioxopiperidin-3-yl)phenyl]piperidin-1-yl}methyl)piperidin-1-yl]phenyl}-1H-pyrrolo[2,3-b]pyridine-3-carbonyl)-2,4-difluorophenyl]-3-fluoropyrrolidine-1-sulfonamide], at BRAF V600E, the DC50 (as a rule, the midpoint of the concentration-degradation curve) is 5 to 50 nM and the Dmax (as a rule, the largest share of the target that was removed) was 35 to 70%. Besides, at BRAF G466V, the half-maximal degradation concentration (DC50) was < 1 nM and the maximal degradation (Dmax) was 35 to 70%.

For `O=C1CCC(N2Cc3cc(C4CCN(CC5CCN(c6ccc(-c7cnc8[nH]cc(C(=O)c9c(F)ccc(NS(=O)(=O)N%10CCC(F)(F)C%10)c9F)c8c7)cc6)CC5)CC4)ccc3C2=O)C(=O)N1` (centres unmarked) [Compound 190, N-[3-(5-{4-[4-({4-[2-(2,6-dioxopiperidin-3-yl)-1-oxo-2,3-dihydro-1H-isoindol-5-yl]piperidin-1-yl}methyl)piperidin-1-yl]phenyl}-1H-pyrrolo[2,3-b]pyridine-3-carbonyl)-2,4-difluorophenyl]-3,3-difluoropyrrolidine-1-sulfonamide], on BRAF V600E, the 50% degradation concentration (DC50) is < 5 nM and the greatest degradation seen (Dmax) lay in the range of 35 to 70%. For the same molecule, at BRAF G466V, the DC50 was in the range of 1 to 10 nM and the Dmax was > 70%.

For `CCN(C)S(=O)(=O)Nc1ccc(F)c(C(=O)c2c[nH]c3ncc(-c4ccc(N5CCC(CN6CCC(c7ccc8c(c7)CN(C7CCC(=O)NC7=O)C8=O)CC6)CC5)cc4)cc23)c1F` (centres unmarked) [Compound 191, 3-(5-{1-[(1-{4-[3-(3-{[ethyl(methyl)sulfamoyl]amino}-2,6-difluorobenzoyl)-1H-pyrrolo[2,3-b]pyridin-5-yl]phenyl}piperidin-4-yl)methyl]piperidin-4-yl}-1-oxo-2,3-dihydro-1H-isoindol-2-yl)piperidine-2,6-dione], at BRAF V600E, the half-maximal degradation concentration (DC50) lay in the range of 5 to 50 nM and the greatest degradation seen (Dmax) is 35 to 70%. At BRAF G466V, the 50% degradation concentration (DC50) was < 1 nM and the greatest degradation seen (Dmax) is > 70%.

`O=C1CCC(N2Cc3cc(N4CC(CN5CCN(Cc6ccc(-c7cnc8[nH]cc(C(=O)c9c(F)ccc(NS(=O)(=O)N%10CC[C@@H](F)C%10)c9F)c8c7)cc6)CC5)C4)ccc3C2=O)C(=O)N1` (stereo partly drawn) [Compound 192, (3R)-N-{3-[5-(4-{[4-({1-[2-(2,6-dioxopiperidin-3-yl)-1-oxo-2,3-dihydro-1H-isoindol-5-yl]azetidin-3-yl}methyl)piperazin-1-yl]methyl}phenyl)-1H-pyrrolo[2,3-b]pyridine-3-carbonyl]-2,4-difluorophenyl}-3-fluoropyrrolidine-1-sulfonamide]: the figures for the DC50 on BRAF V600E and at BRAF G466V were 5 to 50 nM and 1 to 10 nM, respectively. Moreover, the results for the maximal degradation (Dmax) at BRAF V600E and at BRAF G466V were 35 to 70% and > 70%, respectively.

Turning to `O=C1CCC(N2Cc3cc(N4CC(CN5CCN(Cc6ncc(-c7cnc8[nH]cc(C(=O)c9c(F)ccc(NS(=O)(=O)N%10CC[C@@H](F)C%10)c9F)c8c7)cn6)CC5)C4)ccc3C2=O)C(=O)N1` (stereo partly drawn) [Compound 193, (3R)-N-{3-[5-(2-{[4-({1-[2-(2,6-dioxopiperidin-3-yl)-1-oxo-2,3-dihydro-1H-isoindol-5-yl]azetidin-3-yl}methyl)piperazin-1-yl]methyl}pyrimidin-5-yl)-1H-pyrrolo[2,3-b]pyridine-3-carbonyl]-2,4-difluorophenyl}-3-fluoropyrrolidine-1-sulfonamide], the 50% degradation concentration (DC50) on BRAF V600E was 50 to 500 nM; at BRAF G466V it was 1 to 10 nM. Further, the maximal degradation (Dmax) on BRAF V600E and on BRAF G466V was 35 to 70% in each case.
